Source: patent publication US9309286B2, “Compositions and methods for augmenting permeability barriers” (TUFTS MEDICAL CENTER, priority 2011, dated 2016)
Peptide text beside a SMILES is read from it.

What was measured:
rats [1] = tested on: rats
rats [2] = assay: Evans Blue leak into lungs of rats after p38 inhibitor; conditions: 1 μmol/kg

| Structure (SMILES) | Lung weight/body weight, peptide alone (rats [1]) | Leak of intravenously injected Evans Blue into lungs (rats [2]) |
| --- | --- | --- |
| C[C@H](NC(=O)[C@H](C)NC(=O)[C@@H]1CCCN1C(=O)[C@H](C)NC(=O)CNC(=O)[C@H](CCCNC(=N)N)NC(=O)[C@H](CCCNC(=N)N)NC(=O)[C@@H](NC(=O)CNC(=O)[C@@H]1CCCN1C(=O)[C@@H](NC(=O)[C@H](CCCNC(=N)N)NC(=O)[C@H](CCCNC(=N)N)NC(=O)[C@H](C)NC(=O)[C@@H]1CCCN1C(=O)[C@H](CC(N)=O)NC(=O)[C@H](CCCNC(=N)N)NC(=O)[C@@H]1CCCN1C(=O)[C@H](Cc1c[nH]cn1)NC(=O)[C@H](C)NC(=O)[C@H](CCCNC(=N)N)NC(=O)[C@H](C)NC(=O)[C@H](CCC(N)=O)NC(=O)[C@H](CCCNC(=N)N)NC(=O)[C@H](C)NC(=O)[C@H](C)NC(=O)[C@H](C)NC(=O)[C@H](CCCNC(=N)N)NC(=O)[C@H](C)NC(=O)[C@@H](N)Cc1ccc(O)cc1)[C@@H](C)O)[C@@H](C)O)C(N)=O [MK2-activating peptide] (H-YARAAARQARAHPRNPARRTPGTRRGAPAA-NH2) | no significant effect | – |
| C[S+]([O-])c1ccc(-c2nc(-c3ccncc3)c(-c3ccc(F)cc3)[nH]2)cc1 (centres unmarked) [SB203580] | – | increase in leak |
